According to PubChem BioAssay AID330 (DTP/NCI, 2004):
Where “and” joins values, the source holds several entries; their conditions need not be identical. Identical values can stand only once. Inconclusive results and toxic doses are left out. Square brackets hold non-standard residues; d marks the D form. Peptide text beside a SMILES is read from it. Nva = CCC[CH](N)C(=O)O

Test system: P388 leukemia ip, CD2F1 mice, survival T/C
Assay: NCI In Vivo Anticancer Drug Screen. Data for tumor model P388 Leukemia (intraperitoneal) in CD2F1 (CDF1) mice
Conditions: endpoint: median survival time, higher = longer survival
Outline: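 Mice carrying the transplanted tumor received test compound or vehicle. Survival was recorded in each group, and the value is the treated-group measurement divided by that of the vehicle-treated control group.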

[1] = dose: 60.0 mg/kg/injection, schedule: Q01DX005 (ip), vehicle: saline with Tween-80
[2] = dose: 120.0 mg/kg/injection, schedule: Q01DX005 (ip), vehicle: saline with Tween-80
[3] = dose: 240.0 mg/kg/injection, schedule: Q01DX005 (ip), vehicle: saline with Tween-80
[4] = dose: 200.0 mg/kg/injection, schedule: Q01DX005 (ip), vehicle: saline with Tween-80
[5] = dose: 50.0 mg/kg/injection, schedule: Q01DX005 (ip), vehicle: saline with Tween-80
[6] = dose: 100.0 mg/kg/injection, schedule: Q01DX005 (ip), vehicle: saline with Tween-80
[7] = dose: 25.0 mg/kg/injection, schedule: Q01DX009 (ip), vehicle: saline with Tween-80
[8] = dose: 50.0 mg/kg/injection, schedule: Q01DX009 (ip), vehicle: saline with Tween-80
[9] = dose: 100.0 mg/kg/injection, schedule: Q01DX009 (ip), vehicle: saline with Tween-80
[10] = dose: 200.0 mg/kg/injection, schedule: Q01DX009 (ip), vehicle: saline with Tween-80

OC(CNC1CCCCC1)CO/N=C1\CCSc2c(Cl)cccc21 (stereo unspecified)
T/C (dose: 3.12 mg/kg/injection, schedule: Q04DX002 (ip), vehicle: Klucel (hydroxypropylcellulose) (HPC)): 94 % of control | T/C (dose: 6.25 mg/kg/injection, schedule: Q04DX002 (ip), vehicle: Klucel (hydroxypropylcellulose) (HPC)): 99 % of control | T/C (dose: 12.5 mg/kg/injection, schedule: Q04DX002 (ip), vehicle: Klucel (hydroxypropylcellulose) (HPC)): 103 % of control | T/C (dose: 25.0 mg/kg/injection, schedule: Q04DX002 (ip), vehicle: Klucel (hydroxypropylcellulose) (HPC)): 100 % of control | T/C (dose: 100.0 mg/kg/injection, schedule: Q04DX002 (ip), vehicle: Klucel (hydroxypropylcellulose) (HPC)): 96 % of control | T/C (dose: 200.0 mg/kg/injection, schedule: Q04DX002 (ip), vehicle: Klucel (hydroxypropylcellulose) (HPC)): 87 % of control

O=C1Sc2ccccc2C(=O)N2CCCC12 (stereo unspecified)
T/C [1]: 97 % of control | T/C [2]: 99 % of control | T/C [3]: 100 % of control

O=S(=O)(Nc1ccc(Cl)cc1)c1ccc(F)cc1
T/C [1]: 101 % of control | T/C [2]: 100 % of control | T/C [3]: 99 % of control

COC(=O)c1cc(O)c2c(c1C(=O)OC)C[C@H]1[C@@H]3CCC4=CC(=O)CC[C@]4(C)[C@H]3CC[C@]21C
T/C (dose: 1.5 mg/kg/injection, schedule: Q01DX005 (ip), vehicle: saline with Tween-80): 93 % of control | T/C (dose: 3.0 mg/kg/injection, schedule: Q01DX005 (ip), vehicle: saline with Tween-80): 91 % of control | T/C (dose: 6.25 mg/kg/injection, schedule: Q01DX005 (ip), vehicle: saline with Tween-80): 92 % of control | T/C [4]: 86 % of control

CCOC1=N[C@H]2CCCC[C@H]2N1
T/C (dose: 15.0 mg/kg/injection, schedule: Q01DX005 (ip), vehicle: saline): 98 % of control | T/C (dose: 30.0 mg/kg/injection, schedule: Q01DX005 (ip), vehicle: saline): 96 % of control | T/C (dose: 60.0 mg/kg/injection, schedule: Q01DX005 (ip), vehicle: saline): 102 % of control and 98 % of control

O=C1c2cccc3cccc(c23)C(=O)N1CC1CCCO1 (stereo unspecified)
T/C [5]: 99 % of control | T/C [6]: 101 % of control | T/C [4]: 94 % of control

O=C1C=CC(=Nc2cc(Cl)c(O)c(Cl)c2)C=C1
T/C [5]: 96 % of control | T/C [6]: 92 % of control | T/C [4]: 88 % of control

CCCCN(c1ccc(Br)cc1)c1nc(N)nc(N)c1N=O
T/C (dose: 25.0 mg/kg/injection, schedule: Q01DX005 (ip), vehicle: Klucel (hydroxypropylcellulose) (HPC)): 103 % of control | T/C (dose: 50.0 mg/kg/injection, schedule: Q01DX005 (ip), vehicle: Klucel (hydroxypropylcellulose) (HPC)): 99 % of control | T/C (dose: 100.0 mg/kg/injection, schedule: Q01DX005 (ip), vehicle: Klucel (hydroxypropylcellulose) (HPC)): 102 % of control | T/C (dose: 200.0 mg/kg/injection, schedule: Q01DX005 (ip), vehicle: Klucel (hydroxypropylcellulose) (HPC)): 98 % of control

N#C/C(N)=C(\C#N)N=Cc1ccc(N(CCCl)CCCl)cc1
T/C [5]: 100 % of control | T/C [6]: 104 % of control | T/C [4]: 92 % of control

CCOC(=O)C(Cc1ccc(N(CCCl)CCCl)cc1)NC(=O)C(Cc1ccccc1)NC=O (stereo unspecified)
T/C [7]: 172 % of control | T/C [8]: 86 % of control | T/C (dose: 100.0 mg/kg/injection, schedule: Q04DX003 (ip), vehicle: saline with Tween-80): 166 % of control | T/C (dose: 200.0 mg/kg/injection, schedule: Q04DX003 (ip), vehicle: saline with Tween-80): 220 % of control

COc1c(O)c(OC)c2oc3ccccc3c(=O)c2c1OC
T/C (dose: 2.5 mg/kg/injection, schedule: Q01DX009 (ip), vehicle: saline + alcohol): 100 % of control | T/C (dose: 5.0 mg/kg/injection, schedule: Q01DX009 (ip), vehicle: saline + alcohol): 101 % of control | T/C (dose: 10.0 mg/kg/injection, schedule: Q01DX009 (ip), vehicle: saline + alcohol): 100 % of control

C=CCn1c(-c2ccccn2)n[nH]c1=S
T/C [1]: 102 % of control | T/C [2]: 101 % of control | T/C [3]: 100 % of control

C/C=C/c1nn(-c2ccccc2)c2c1C(=O)CC(C)O2 (stereo unspecified)
T/C [1]: 96 % of control | T/C [2]: 95 % of control | T/C [3]: 96 % of control

CCCC(N)C(=O)NC(C(=O)O)C(C)C (stereo unspecified) (H-[Nva]-Val-OH; configuration not given here)
T/C (dose: 50.0 mg/kg/injection, schedule: Q01DX009 (ip), vehicle: saline): 100 % of control | T/C (dose: 100.0 mg/kg/injection, schedule: Q01DX009 (ip), vehicle: saline): 103 % of control | T/C (dose: 200.0 mg/kg/injection, schedule: Q01DX009 (ip), vehicle: saline): 100 % of control

CC(=O)OCC#CCN1CCCCCC1
T/C (dose: 50.0 mg/kg/injection, schedule: Q01DX005 (ip), vehicle: saline): 91 % of control | T/C (dose: 100.0 mg/kg/injection, schedule: Q01DX005 (ip), vehicle: saline): 92 % of control

Cc1ncc(CO)c(C2NCCS2)c1O (stereo unspecified)
T/C [1]: 100 % of control | T/C [2]: 107 % of control | T/C [3]: 107 % of control

O=c1c2cc3c(=O)n(CO)c(=O)c3cc2c(=O)n1CO
T/C [1]: 118 % of control | T/C [2]: 120 % of control | T/C [3]: 121 % of control

COc1cc(CNC(=O)CCCC/C=C\C(C)C)ccc1OC(=O)/C=C/c1ccccc1
T/C (dose: 1.55 mg/kg/injection, schedule: Q01DX009 (ip), vehicle: Klucel (hydroxypropylcellulose) (HPC)): 100 % of control | T/C (dose: 3.1 mg/kg/injection, schedule: Q01DX009 (ip), vehicle: Klucel (hydroxypropylcellulose) (HPC)): 106 % of control | T/C (dose: 6.2 mg/kg/injection, schedule: Q01DX009 (ip), vehicle: Klucel (hydroxypropylcellulose) (HPC)): 103 % of control

CCOC(=O)Nn1c(C)c(C(N)=O)c(C(=O)OC)c1C
T/C [1]: 100 % of control | T/C [2]: 96 % of control | T/C [3]: 103 % of control

OCCN(CCO)c1cc(/C=C/c2c3ccccc3cc3ccccc23)nc2ccccc12
T/C [8]: 89 % of control | T/C [9]: 93 % of control | T/C [10]: 92 % of control

Oc1c(Br)cc(Br)cc1/C=N/NC(=S)N/N=C/c1cc(Br)cc(Br)c1O
T/C (dose: 12.5 mg/kg/injection, schedule: Q01DX009 (ip), vehicle: distilled water + Tween-80): 97 % of control | T/C (dose: 25.0 mg/kg/injection, schedule: Q01DX009 (ip), vehicle: distilled water + Tween-80): 103 % of control and 108 % of control | T/C (dose: 50.0 mg/kg/injection, schedule: Q01DX009 (ip), vehicle: distilled water + Tween-80): 118 % of control

CC1=NN(C(=O)c2ccncc2)C(=O)C1N=Nc1ccc(C)c([N+](=O)[O-])c1 (stereo unspecified)
T/C [8]: 107 % of control | T/C [9]: 101 % of control | T/C [10]: 97 % of control

O=C1CCCCCC1Cc1cc(O)c(CC2CCCCCC2=O)cc1O (stereo unspecified)
T/C [7]: 96 % of control | T/C [8]: 93 % of control | T/C [9]: 98 % of control | T/C [10]: 94 % of control

CCO/C=N/NC(=O)c1n[nH]c2ccccc12
T/C [5]: 106 % of control | T/C [6]: 100 % of control | T/C [4]: 106 % of control

Nc1ccc(SCCOC(c2ccccc2)(c2ccccc2)c2ccccc2)cc1
T/C (dose: 100.0 mg/kg/injection, schedule: Q04DX003 (ip), vehicle: saline): 101 % of control | T/C (dose: 200.0 mg/kg/injection, schedule: Q04DX003 (ip), vehicle: saline): 99 % of control | T/C (dose: 400.0 mg/kg/injection, schedule: Q04DX003 (ip), vehicle: saline): 102 % of control

Cc1ccc(N2N=NC3C4CCC(C)(C4(C)C)C32O)cc1 (stereo unspecified)
T/C (dose: 50.0 mg/kg/injection, schedule: Q04DX002 (ip), vehicle: other): 92 % of control | T/C (dose: 100.0 mg/kg/injection, schedule: Q04DX002 (ip), vehicle: other): 98 % of control | T/C (dose: 200.0 mg/kg/injection, schedule: Q04DX002 (ip), vehicle: other): 93 % of control

O=C(CC(=NCC(O)CN=C(CC(=O)c1ccccc1)c1ccccc1)c1ccccc1)c1ccccc1 (stereo unspecified)
T/C (dose: 100.0 mg/kg/injection, schedule: Q04DX002 (ip), vehicle: saline with Tween-80): 98 % of control | T/C (dose: 200.0 mg/kg/injection, schedule: Q04DX002 (ip), vehicle: saline with Tween-80): 98 % of control | T/C (dose: 400.0 mg/kg/injection, schedule: Q04DX002 (ip), vehicle: saline with Tween-80): 91 % of control

CCOC1N(c2ccc(Cl)cc2)CN(CCCN(C)C)CC1(C)C (stereo unspecified)
T/C [8]: 104 % of control | T/C [9]: 104 % of control | T/C [10]: 117 % of control

O=C(CC(=O)CC(O)(C(F)(F)F)C(F)(F)F)CC(O)(C(F)(F)F)C(F)(F)F
T/C (dose: 1.25 mg/kg/injection, schedule: Q04DX003 (ip), vehicle: saline): 100 % of control | T/C (dose: 2.5 mg/kg/injection, schedule: Q04DX003 (ip), vehicle: saline): 95 % of control

Nc1ccc2c(c1)CCCC2=O
T/C [1]: 102 % of control | T/C [2]: 93 % of control | T/C [3]: 107 % of control

O=C(S)c1ccc(Cl)c(Cl)c1
T/C [5]: 90 % of control | T/C [6]: 87 % of control | T/C [4]: 92 % of control

O=C(NC(=NC(=Nc1ccc(Cl)cc1)c1ccccc1)c1ccccc1)c1ccccc1
T/C [8]: 92 % of control | T/C [9]: 95 % of control | T/C [10]: 99 % of control
